Measurements taken from patent US11447638B2, “Acetalanthraquinone derivatives useful for cellular staining” (BIOSTATUS LIMITED, priority 2016, dated 2022).

Assays:
A549 cells = assay: Pulse exposure to probes, time-lapse, reimaged after 72 h; format: cell-based, human; conditions: 20 uM for 15 mins, washout, T=72 h
Protocol: In this regard, A549 cells were seeded in a 24 well coverslip bottomed-plate, cultured overnight in McCoys media for 24 or 48 hours. The plates were placed onto an inverted automated microscope, with the capacity for acquiring an image sequence of different wells (therefore exposure to different agent labelling). An Axiovert 100 microscope (Carl Zeiss, Welwyn Garden City, UK) was fitted with an incubator for 37° C./5% CO2 maintenance (Solent Scientific, Portsmouth, UK), and an ORCA-ER CCD camera (Hamamatsu, Reading, UK). Illumination was controlled by a shutter in front of the transmission lamp, and an x, y positioning stage with separate z-focus (Prior Scientific, Cambridge, UK) controlled multi-field acquisition. Image capture was controlled using Metamorph software.
Cells were exposed to a constant dose (0-5 μM) or a pulsed dose of 0 or 20 μM agent for 15 minutes followed by washout with warmed full media.
All images were collected with a ×10 (PH1) apochromat objective lens providing a field size of 500 times 500 microns. In this case a phase contrast image was collected every 30 minutes for 72 hours. Single cell growth and expansion can be tracked over time. The cells were harvested and run through a flow cytometry (typically a FACS Calibur 635 nm excitation/661/16 emission).
A549 cells were loaded with 20 uM BST-101, BST-109 or BST-110 for 15 mins followed by washout. Cells were then time-lapsed and reimaged after T=72 h, as before, […]

U-2 OS cells = assay: Confocal laser scanning microscopy (CLSM) localisation analysis; format: cell-based, human; conditions: 30 min incubation, Ex 637 nm, Em >665 nm; for subcellular localisation by CLSM: FIG. 4 and 5
Method in brief: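 Live U-2 OS cells imaged by confocal microscopy after 30 min incubation with probe compound, excitation 637 nm, emission >665 nm, at several z depths with solution background removed. Sections merged into maximum projections; per-cell nucleus/cytoplasm fluorescence ratio used as index of DNA binding.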

[1] = Absorption and fluorescence spectra of compounds in PBS or HEPES; format: physicochemical; conditions: for peak excitation wavelength: excitation wavelength used for fluorescence spectra of FIG. 1A/1B; for fluorescence emission, 540 nm (Ex in PBS): excited at 540 nm; for fluorescence emission, 540 nm (Ex in PBS) / fluorescence emission, λ1 nm (Ex in HEPES) / fluorescence emission, λ1 nm (Ex in PBS): 20 μM; for fluorescence emission, λ1 nm (Ex in HEPES) / fluorescence emission, λ1 nm (Ex in PBS): excited at absorption peak 1 (λ1)
Method in brief: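 Compounds (20 μM working solutions) in PBS or HEPES, read in quartz cuvette against buffer baseline, absorbance scanned 280–800 nm. Emission scanned 400–900 nm in 1 nm steps with excitation at each compound's first absorption peak or 540 nm, ten reads per point. DRAQ5 served as reference; spectra normalised to peak.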

MCF7 = assay: MTT cellular viability (growth inhibition) assay, MCF7; format: cell-based; conditions: Homo sapiens, 0.25-100 μM, 72 h, Table 3
Method in brief: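 Cells seeded at 1×10^4 cells/mL in R10, allowed to adhere overnight at 37 °C, 5% CO2. Compounds tested at 0.25–100 μM for 72 h; MTT read-out gave growth-inhibition IC50.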

Compound	cell division and signal retention / location after pulse exposure (A549 cells)	specific feature of localisation by CLSM (U-2 OS cells)	subcellular localisation by CLSM (U-2 OS cells)	peak excitation wavelength [1] [nm]	fluorescence emission, 540 nm (Ex in PBS) [1] [nm]	fluorescence emission, λ1 nm (Ex in HEPES) [1] [nm]	fluorescence emission, λ1 nm (Ex in PBS) [1] [nm]	IC50 (MCF7) [µM]
COC(CNC(=O)CCNc1ccc(NCCN(C)C)c2c1C(=O)c1ccccc1C2=O)OC [BST-109, N-(2,2-Dimethoxyethyl)-3-(4-(2-(dimethylamino)ethylamino)-9,10-dioxo-9,10-dihydroanthracen-1-ylamino)propanamide]	dividing, and signal retained but now relocated in a non-nuclear compartment perinuclear	whole cell staining	strong nuclear uptake and perinuclear staining, with possible ER accumulation	584	660	660	666	15.7
COC(CC(=O)NCCNc1ccc(NCCN(C)C)c2c1C(=O)c1ccccc1C2=O)OC [BST-110, N-(2-(4-(2-(dimethylamino)ethylamino)-9,10-dioxo-9,10-dihydroanthracen-1-ylamino)ethyl)-3,3-dimethoxypropanamide]	dividing, and signal now relocated in a non-nuclear compartment perinuclear	whole cell staining	strong nuclear uptake and perinuclear staining, with possible ER accumulation	583	662	660	665.5	19.5
